Like-named read-outs stand apart in the source and are kept apart here.
Experiments:
[1] = tested on: H1N1 A/California/07/2009, H3N2 A/Victoria/210/2009, B/Brisbane/60/2008; assay: Serologic response to 2012 seasonal influenza vaccine (HI GMT ratio, primary endpoint); format: in vivo, human; settings: for primary endpoint (≥1.2-fold GMT increase relative to placebo in 2 of 3 strains): ITT population
Method: From December 2011 to April 2012, 218 elderly volunteers were enrolled in a randomized, observer-blind, placebo-controlled trial. The subjects were randomized to treatment arms using a validated automated randomization system with a ratio of RAD001 to placebo of 5:2 in each treatment arm. The treatment arms were: • RAD001 0.5 mg daily or placebo • RAD001 5 mg weekly or placebo • RAD001 20 mg weekly or placebo
The trial was observer-blind because the placebo in the RAD001 0.5 mg daily and 20 mg weekly cohorts differed slightly from the RAD001 tablets in those cohorts. […] The treatment duration for all cohorts was 6 weeks during which time subjects underwent safety evaluations in the clinic every 2 weeks. After subjects had been dosed for 4 weeks, RAD001 steady state levels were measured pre-dose and at one hour post dose. After completing the 6 week course of study drug, subjects were given a 2 week drug free break to reverse any possible RAD001-induced immunosuppression, and then were given a 2012 seasonal influenza vaccination (Agrippal®, Novartis Vaccines and Diagnostics, Siena, Italy) containing the strains H1N1 A/California/07/2009, H3N2 A/Victoria/210/2009, B/Brisbane/60/2008. Four weeks after influenza vaccination, subjects had serum collected for influenza titer measurements. Antibody titers to the 3 influenza vaccine strains as well as to 2 heterologous strains (A/H1N1 strain A/New Jersey/8/76 and A/H3N2 strain A/Victoria/361/11) were measured by standard hemagglutination inhibition assay (Kendal, A P et al. (1982) Concepts and procedures for laboratory-based influenza surveillance. Atlanta: Centers for Disease Control and Prevention B17-B35). Levels of IgG and IgM specific for the A/H1N1/California/07/2009 were measured in serum samples taken before and 4 weeks after influenza vaccination as described previously (Spensieri, F. et al. (2013) Proc. Natl. Acad. Sci. USA 110:14330-14335). Results were expressed as fluorescence intensity.
The primary analysis of geometric mean titer ratios was done using a normal Bayesian regression model with non-informative priors. This model was fitted to each antibody titer on the log scale. The primary outcome in each model was the Day 84 measurement. The Day 63 measurement was included in the outcome vector. The model fitted using SAS 9.2 proc mixed with the prior statement. The covariance structure of the matrix was considered as unstructured (option type=UN). A flat prior was used. For the secondary analysis of seroconversion rates, logistic regression was used.
The ability of RAD001 to improve immune function in elderly volunteers was evaluated by measuring the serologic response to the 2012 seasonal influenza vaccine. […]

[2] = tested on: A/H1N1 strain A/New Jersey/8/76 and A/H3N2 strain A/Victoria/361/11; set-up: species or system human; settings: in vivo
[3] = cited from earlier work
P70 S6K = assay: Percent inhibition of P70 S6K activity in HeLa cells in vitro; settings: concentrations from 30 pM to 4 nM
[4] = Size exclusion chromatography (oligomerization state of expressed scFvs); format: physicochemical; settings: purified scFv
Method: Size exclusion chromatography was performed to determine the oligomerization states of the expressed scFvs. 25 μg each was injected onto a TSKGel Super SW3000 4.6 mm×300 mm column (Tosoh Bioscience) heated to 35° C. The scFvs were eluted at 0.3 mL/min in 750 mM arginine, 1 mM EDTA, 20 mM sodium phosphate, 250 mM sodium chloride, pH 7.2; the UV absorbance was monitored at 280 nm.

Molecule	primary endpoint (≥1.2-fold GMT increase relative to placebo in 2 of 3 strains) ([1]; 0.5 mg daily or 5 mg weekly)	primary endpoint (≥1.2-fold GMT increase relative to placebo in 2 of 3 strains) ([1]; 20 mg weekly)	increase in titers in subjects with low baseline influenza titers (≤1:40) ([1]; compared with the ITT population)	RAD001 concentration versus increase in titer ([1]; concentration 1 hour post dose after 4 weeks)	increase in HI GMT ratios for the heterologous strains [2]	seroconversion rates for the heterologous strains [2]	trough level ([3]; 10 mg daily oncology dosing regimen)	trough level ([3]; 0.75-1.5 mg bid transplant dosing regimen)	effect on P70 S6K activity in cell lines (P70 S6K)	% Monomer (SEC) [4]
CO[C@H]1C[C@@H]2CC[C@@H](C)[C@@](O)(O2)C(=O)C(=O)N2CCCC[C@H]2C(=O)O[C@H]([C@H](C)C[C@@H]2CC[C@@H](OCCO)[C@H](OC)C2)CC(=O)[C@H](C)/C=C(\C)[C@@H](O)[C@@H](OC)C(=O)[C@H](C)C[C@H](C)/C=C/C=C/C=C/1C [RAD001, (1R,9S,12S,15R,16E,18R,19R,21R,23 S,24E,26E,28E,30S,32S,35R)-1,18-dihydroxy-12-{(1R)-2-[(1 S,3R,4R)-4-(2-hydroxyethoxy)-3-methoxycyclohexyl]-1-methylethyl}-19,30-dimethoxy-15,17,21,23,29,35-hexamethyl-11,36-dioxa-4-aza-tricyclo[30.3.1.04,9]hexatriaconta-16,24,26,28-tetraene-2,3,10,14,20-pentaone]	met the GMT primary endpoint	but not higher dose (20 mg weekly) cohort met the primary endpoint	greater RAD001-associated increase in titers	inverse exposure/response relationship	higher in the RAD001 as compared to placebo cohorts	higher in the RAD001 as compared to placebo cohorts	approximately 20 ng/ml	approximately 3 ng/ml	partially inhibited P70 S6K activity	–
M5: human anti-mesothelin scFv SEQ ID NO: 43; full CAR SEQ ID NO: 67 (protein) scFv: QVQLVQSGAEVEKPGASVKVSCKASGYTFTDYYMHWVRQAPGQGLEWMGWINPNSGGTNYAQKFQGRVTMTRDTSISTAYMELSRLRSDDTAVYYCASGWDFDYWGQGTLVTVSSGGGGSGGGGSGGGGSGGGGSDIVMTQSPSSLSASVGDRVTITCRASQSIRYYLSWYQQKPGKAPKLLIYTASILQNGVPSRFSGSGSGTDFTLTISSLQPEDFATYYCLQTYTTPDFGPGTKVEIK	–	–	–	–	–	–	–	–	–	82%

Reference: patent publication US11999794B2, “Human mesothelin chimeric antigen receptors and uses thereof” (Novartis AG, priority 2013, dated 2024)
